Experimental data as given in article PMC9856044 (Biomolecules, 2023).

Key:
[1] = biological target: Tel22 (5′-AGGG(TTAGGG)3–3′) G-quadruplex; test: Fluorimetric titration with Tel22 in potassium phosphate buffer (K+ solution); format: binding, human
Procedure: (§1) Materials. Polynucleotides were purchased as noted: poly A–poly U, calf thymus ctDNA, poly(dAdT)2 and poly(dGdC)2 (Sigma-Aldrich, St. Louis, MI, USA). Polynucleotides were dissolved in Na-cacodylate buffer, I = 0.05 mol dm^−3, pH = 7.0. The calf thymus ctDNA was additionally sonicated and filtered through a […]. Polynucleotide concentration was determined spectroscopically as the concentration of phosphates. Spectrophotometric titrations were performed at pH = 7.0 (I = 0.05 mol dm^−3, sodium cacodylate buffer) by adding aliquots of polynucleotide solution into the solution of the studied compound for fluorimetric experiments and CD experiments were done by adding aliquots of the compound stock solution into the solution of a polynucleotide. In fluorimetric experiments, an excitation wavelength of λexc = 425, 431, 423, 427, 406 and 407 nm, respectively, was used to avoid the inner filter effect caused due to increasing absorbance of the polynucleotide. Emission was collected in the range λem = 400–700 nm. Values for Ka obtained by processing titration data using the Scatchard equation [27], all have satisfactory correlation coefficients (≥0.98).
(§2) Thermal melting curves for DNA, RNA and their complexes with studied compounds were determined as previously described by following the absorption change at 260 nm as a function of temperature. The absorbance of the ligands was subtracted from every curve and the absorbance scale was normalized. Tm values are the midpoints of the transition curves determined from the maximum of the first derivative and checked graphically by the tangent method. The ∆Tm values were calculated by subtracting Tm of the free nucleic acid from Tm of the complex. Every ∆Tm value here reported was the average of two measurements. The error in ∆Tm is ±0.5 °C. 5′-AGGG(TTAGGG)3–3′(Tel22) was obtained from IDT (Integrated DNA Technologies, Coralville, IA, USA). Tel22 was dissolved in 0.1 M either in sodium cacodylate or potassium phosphate buffer. The starting Tel22 oligonucleotide solution was first heated up to 95 °C for 10 min, then slowly cooled to 10 °C at the cooling rate of 1 °C/min to allow DNA oligonucleotide to adopt a G-quadruplex structure. The G-quadruplex structure was confirmed by thermal melting and CD spectra. The concentration of G quadruplex was expressed in terms of oligonucleotide structure. In fluorimetric titrations, aliquots of Tel 22 solution were added to the solution of ligands (c ~ 2 × 10^−7 M, in SI).
Binding constants (log Ka) and stoichiometry of complexes were calculated from the fluorimetric data using non-linear least-square program SPECFIT [46], in the concentration range that corresponded to 20–80% complex formed.

[2] = test system: Tel22 G-quadruplex; test: Thermal melting of Tel22 in potassium phosphate buffer; format: binding, human; conditions: Tel22, r = 1.0, potassium phosphate buffer, pH = 7.0, I = 0.1 mol dm^−3; error ±0.5 °C
Procedure: as §2

[3] = biological target: poly(dGdC)2 (GC-DNA); test: Fluorimetric titration with GC-DNA; format: binding; conditions: for log Ka / Ka (order of magnitude): GC-DNA; for Ka (order of magnitude): sodium cacodylate buffer, pH 7.0, I = 0.05 mol dm^−3, Scatchard equation; for K (fit parameter of titration curve): poly(dGdC)2, pH=7.0, sodium cacodylate buffer, I = 0.05 mol dm-3
Procedure: as §1, with “(≥0.98). Furthermore, linear changes were evident with increasing DNA or RNA concentration in most titrations. The exceptions to this were titrations of cyanine 3 with GC-DNA and titrations of dye 5 with ds-DNA and ds-RNA where sufficient data points in the non-linear part of the curve allowed estimation of binding affinity (Ka values were of the order 10^5 mol^−1 dm^−3; Figures S16, S22 and S23 in SI). Titration data were collected at a high excess of polynucleotide binding sites (r[1–6]/[nucleotide phosphate] < 0.1; see Figures S9–S26 in SI) where each molecule can bind to a separate binding site. Binding affinities of dye-DNA/RNA complexes were calculated by non-linear fitting using the Scatchard equation [27, 33]. The fluorescence changes of dye 5 in the titration with AT-DNA were too small to obtain an accurate binding constant (Figure S21 in SI).” for “(≥0.98).”

[4] = test system: HeLa cells; test: MTT cytotoxicity assay, HeLa; format: cell-based; conditions: Homo sapiens, 72 h incubation, ± SD
Procedure: (§3) Human cervical carcinoma HeLa (GIBCO BRL, Invitrogen, Waltham, MA, USA), human melanoma MDA-MB-435S and human ovarian adenocarcinoma SK-OV-3 (ATCC-LGC Standards GmbH, Wesel, Germany) cell lines were purchased from indicated cell culture banks. Normal human skin fibroblasts were isolated from the upper arm of a donor at the Neurochemical Laboratory, Department of Chemistry and Biochemistry, School of Medicine, University of Zagreb. HeLa, MDA-MB-435S and fibroblasts were grown in Dulbecco’s Modified Eagle’s Medium (DMEM; Sigma-Aldrich, St. Louis, MI, USA) while the SK-OV-3 cell line was grown in McCoy’s 5A medium (Capricorn Scientific, Ebsdorfergrund, Germany). All media were supplemented with 10% fetal bovine serum (FBS; Sigma-Aldrich) and 50 I.U./mL penicillin and 50 μg/mL streptomycin. Cells were cultured in a humidified atmosphere of 5% CO2 at 37 °C and were sub-cultured every 3–4 days. HeLa, MDA-MB-435S, SK-OV-3 cells and fibroblasts were seeded in 96 well plates. Twenty-four hours later the cells were treated, in quadruplicate, with different concentrations of compounds (dissolved in DMSO, kept at 4 °C and protected from light). Following 72 h of incubation at 37 °C, the medium was aspired and modified 3-(4,5-dimethylthiazol-2-yl)-2,5-diphenyltetrazolium bromide (MTT) assay was used to determine the cytotoxic effect of the tested compounds. Three hours later, formazan crystals were dissolved in DMSO (0.17 mL/well), the plates were mechanically agitated for 20 min and the optical density at 600 nm was determined on a microtiter plate reader (Awareness Technology Inc., Palm City, FL, USA). The experiments were repeated three times.

[5] = test system: SK-OV-3 cells; test: MTT cytotoxicity assay, SK-OV-3; format: cell-based; conditions: Homo sapiens, SK-OV-3, 72 h incubation, ± SD
Procedure: as §3

[6] = test system: Fibroblasts; test: MTT cytotoxicity assay, normal human skin fibroblasts; format: cell-based; conditions: Fibroblast, 72 h incubation, ± SD
Procedure: as §3

SMILES | logKa (L + G ⇆ LG, 1:1 complex) ([1]; Tel22, potassium phosphate buffer, pH = 7.0, I = 0.1 mol dm^−3, SPECFIT fit) | ∆Tm [2] | log Ka [3] | Ka (order of magnitude) [3] | K (fit parameter of titration curve) [3] | IC50 [4] | IC50 [5] | IC50 [6] | log Ka (indicated by steeper slope of titration curves) ([1]; Tel22, K+ solution, no accurate fit possible)
CN1/C(=C/c2[se]c3ccccc3[n+]2C)Sc2ccccc21 [Compound 3, 3-methyl-2-((3-methylbenzo[d]thiazol-2(3H)-ylidene)methyl)benzo[d][1,3]selenazol-3-ium methosulphate] | 6.88 ± 0.05 | 0.5 °C | 5 | ~10^5 mol^−1 dm^−3 | 183746.7242 ±8918685.57223 | 1020 ± 672 nM | 548 ± 102 nM | 2380 ± 161 nM | 
C[n+]1c(/C=C2\Sc3ccccc3N2CCCS)[se]c2ccccc21 [Compound 5, 2-((3-(3-mercaptopropyl)benzo[d]thiazol-2(3H)-ylidene)methyl)-3-methylbenzo[d][1,3]selenazol-3-ium methosulphate] |  | 5.1 °C | 5 | ~10^5 mol^−1 dm^−3 | 282880.22043 ±15074133.56759 | 27900 ± 4140 nM | 29600 ± 5720 nM | > 40000 nM | ≥ 7
